Assay results from US12358904B2, “Inhibitors of TYK2” (Atomwise Inc., priority 2023, dated 2025).

Columns and labels:
IL-6/pSTAT3 = assay: IL-6 induced pSTAT3 assay in TF-1 cells; type: cell-based; settings: Homo sapiens, read-out: Cellular selectivity (IL-6/pSTAT3)
Method: The following example describes the IL-6 induced pSTAT3 assay used to determine the cellular selectivity (IL-6/pSTAT3) of the TYK2 inhibitors.
TF-1 (ATCC®, CRL-2003™) cells were cultured in RPMI 1640 Medium, with GlutaMAX™ Supplement, HEPES for Cell Culture (Life Technologies, 72400047), 10% Fetal Bovine Serum (Life Technologies, 26400044), 2 ng/mL human recombinant GM-CSF (Life Technologies, PHC2013), 1 mM Sodium pyruvate (Life Technologies, 11360039), 1% MEM NEAA (Life Technologies, 11140-035), 1% Penicillin/Streptomycin (Life Technologies, 15140-122).
TF-1 (70×10^6) cells were starved overnight in T01 50 flasks (Opti-MEM™ I Reduced Serum Medium, no phenol red (Life Technologies, 11058-021), 1 mM Na pyruvate (Life Technologies, 11360039), 1% MEM NEAA (Life Technologies, 11140-035), and 1% Penicillin/Streptomycin (Life Technologies, 15140-122)) then seeded into 96-well TPP plates (150 000 cell/well) and incubated with test compounds (Final Concentration [nM] 10000-0.05) for 30 minutes at 37° C. […] Stimulation was terminated by addition of lysis buffer (MSD K150SVD) and pSTAT3 detection was measured with Phospho-STAT3 (Tyr705) Kit MSD K150SVD)) according to manufacturer's instruction. Briefly, cell lysates were added to pre-blocked plates, sealed, and shake for 1 hour at room temperature. Plates were then washed and incubated with detection antibody for 1 hour at room temperature. After washing, Read Buffer was added, and plates were read on MSD instrument (Model 1300 MSD Quickplex SQ 120).

GM-CSF/pSTAT5 = assay: GM-CSF induced pSTAT5 assay in CellSensor irf1-bla TF-1 cells; type: cell-based; settings: GM-CSF 1 ng/mL; for IC50: Homo sapiens, read-out: Cellular selectivity (GM-CSF induced pSTAT5)
Method: The CellSensor irf1-bla TF-1 cell line (LifeTechnologies, K1657) was cultured in RPMI 1640 Medium (Invitrogen 72400-047), 10% Fetal Bovine Serum (Invitrogen, 26400044), 1 mM Sodium pyruvate (Life Technologies, 11360039), 1% MEM NEAA (Life Technologies, 11140-035), 2 ng/ml of human recombinant GM-CSF (Fisher, PHC2015), 1% Penicillin/Streptomycin (Life Technologies, 15140-122) and 5 μg/ml of Blasticidin (ThermoFisher, A1113903).
The cell line was seeded in a T75 flask at 13×10^6 cells/50 mL in starvation medium (Opti-MEM™ I Reduced Serum Medium, no phenol red (Life Technologies, 11058-021), 1 mM Na pyruvate (Life Technologies, 11360039), 1% MEM NEAA (Life Technologies, 11140-035), and 1% Penicillin/Streptomycin (Life Technologies, 15140-122)) for 16 hours at 37° C. under 5% CO2 the day before the assay.
For the assay, CellSensor irf1-bla TF-1 cells were seeded at 30 000 cells/32 μL (starvation medium)/well in a 384-well plate.
Compounds were added on the cells in 4 μL (starvation medium)/well at 10× the final concentration. They were incubated for 30 minutes at 37° C.
Human recombinant carrier-free GM-CSF (ThermoFisher, ref PHC2015) was added to the wells in 4 μL (starvation medium)/well at 10×. The final concentration was 1 ng/mL. Control wells without GM-CSF treatment were added. Plates were incubated for 5 hours at 37° C.
6× LiveBlazer-FRET substrate (Invitrogen, K1085) was added to the wells at 8 μL/well. The substrate was prepared shortly before use by mixing 6 μL of solution A and 60 μL of solution B to 934 μL of solution C. Plates were incubated for 2.5 hours at room temperature in the dark. The plates were read on an Envision (Perkin Elmer) with an excitation at a wavelength of 409 nm and two wavelengths for the emission 520 nm and 450 nm. The ratio between the […] emission was used to calculate the IC50s.
The IC50 for the inhibition of pSTAT5 was calculated with the Xlfit software using the 4 Parameter Logistic Model or Sigmoidal Dose-Response Model (model 205).

TYK2-JH2 = target: T1, TYK2-JH2 (Homo sapiens, UniProt P29597); assay: TYK2-JH2 HTRF binding assay (ligand efficiency); settings: calculated from IC50 of the TYK-JH2 binding assay (Equation 1)
T1 construct: TYK JH2 enzyme mix (ChemPartnec CP20210818A-BV); purchased ChemPartner CP20210818A-BV
Method: The following example describes the TYK2-JH2 HTRF binding assay used to determine the ligand efficiency of the TYK2 inhibitors.
To calculate ligand efficiency, Equation 1 is applied:
[formula] in which IC50 comes from the binding assay used to determine compound potency.
TYK JH2 enzyme mix (ChemPartnec CP20210818A-BV), tracer (ChemPartnec CP-0029472-051) and mAb Anti-6HIS Tb cryptate Gold (Cisbio: Cat No. 61H12TLA) mix were prepared in assay buffer (10 mM MgCl2, 20 mM HEPES pH 7.5, 0.01% Triton X-100, 1 mM DTT). Compounds diluted in DMSO (Final Concentrations 0.1 to 0.000005 [μM]) and enzyme mix (0.5 nM Final Concentration) were added to 384 well plates, briefly centrifuged and incubated at room temperature for 10 minutes. After incubation, tracer mix (Tracer-35 nM final concentration); (Mab Anti-6HIS Tb cryptate Gold-0.5× final)) was added, briefly centrifuged then incubate at room temperature 60 minutes. After incubation, plates were read by Envision TR-FRET (Ex340/Em495/520) protocol (PerkinElmer-Envision 2104 multilabel plate reader).

IL-12/pSTAT4 = assay: IL-12 induced pSTAT4 assay in NK-92 cells; type: cell-based; settings: Homo sapiens, NK92, IL-12 stimulation, read-out: Cellular potency (IL-12/pSTAT4)
Method: The following example describes the IL-12 induced pSTAT4 assay used to determine the cellular potency (IL-12/pSTAT4) of the TYK2 inhibitors.
NK-92 cells (human natural killer lymphoma cell line) were cultured in MEM α, nucleosides (Life Technologies, 22571020) 12.5% heat inactivated FBS (Dominique Dutscher, S1810), 12.5% heat inactivated Horse serum (Life Technologies, 26050088) and 1% Penicillin-Streptomycin (Life Technologies, 15140122), 5 ng/mL human IL-2 (R&D systems, 202-II/CF), 0.2 mM inositol (Sigma, PHR1351 lot LRAC4118), 0.1 mM β-mercaptoethanol (Life Technologies, 31350010), and 0.02 mM folic acid (Sigma, F8758).
NK-92 cells were starved overnight in starvation medium (Opti-MEM (ThermoFisher, 11058-021), 10% charcoal stripped FBS (ThermoFisher 12676-029), and 1% Penicillin (100U/ml)-Streptomycin (100 μg/ml) (ThermoFisher, ref 15140122)), then plated in a 96-well tissue culture plate (20K cells/well) prior to pre-incubation with test compounds (Final Concentration [nM] 1000 to 0.05) for 30 minutes at 37° C. Cells were stimulated with IL-12 (Final Concentration l0 ng/ml) for 30 minutes at 37° C., and terminated by addition of lysis buffer (MSD K150PAD-2). pSTAT4 (Tyr693) was detected using the Mesa Scale Discovery platform (MSD K150PAD-2), according to manufacturer's instruction. Briefly, cell lysates were added to pre-blocked plates and incubated for 1 hour at room temperature. Plates were washed and incubated with detection antibody for 1 hour at room temperature. Plates were washed and Read Buffer was added prior to measurement on the MSD (1300 MSD Quickplex SQ 120).

T1 sequence (P29597 589-875 limits assumed): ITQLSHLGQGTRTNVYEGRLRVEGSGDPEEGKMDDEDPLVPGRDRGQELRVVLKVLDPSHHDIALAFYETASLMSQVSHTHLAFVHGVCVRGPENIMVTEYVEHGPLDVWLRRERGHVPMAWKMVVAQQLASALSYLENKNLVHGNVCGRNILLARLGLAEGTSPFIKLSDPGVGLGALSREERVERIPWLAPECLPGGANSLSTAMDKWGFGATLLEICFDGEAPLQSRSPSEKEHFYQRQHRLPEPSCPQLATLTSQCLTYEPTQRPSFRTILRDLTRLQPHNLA

Row | Compound | IC50 (IL-6/pSTAT3) | Cellular selectivity (GM-CSF induced pSTAT5) (GM-CSF/pSTAT5) | Ligand Efficiency (TYK2-JH2) | IC50 (IL-12/pSTAT4) | IC50 (GM-CSF/pSTAT5)
1 | C[C@H](c1ccc(Nc2cc(Nc3ncccc3S(C)(=O)=O)ncn2)nc1)N1CC2(COC2)C1 [Compound 17, I—N^4-(5-(1-(2-oxa-6-azaspiro[3.3]heptan-6-yl)ethyl) 73yridine-2-yl)-N^6-(3-(methylsulfonyl)73yridine-2-yl)pyrimidine-4,6-diamine] | > 10 µM | †††† | †† (††: 0.37-0.39) | < 0.1 µM | 
2 | CS(=O)(=O)c1cccnc1Nc1cc(Nc2ccc3c(n2)CC[C@@H]3N2CC3(COC3)C2)ncn1 [Compound 9, N^4-((5S)-5-(2-oxa-6-azaspiro[3.3]heptan-6-yl)-6,7-dihydro-5H-cyclopenta[b]86yridine-2-yl)-N^6-(3-(methylsulfonyl)86yridine-2-yl)pyrimidine-4,6-diamine] | > 10 µM |  | ††† (†††: >0.39) | < 0.1 µM | > 10 µM
3 | CC(NC1CC(F)(F)C1)c1ccc(Nc2cc(Nc3ncccc3S(C)(=O)=O)ncn2)nc1 (centres unmarked) [Compound 35, N^4-(5-(1-(3,3-difluorocyclobutylamino)ethyl)122yridine-2-yl)-N^6-(3-(methylsulfonyl)122yridine-2-yl)pyrimidine-4,6-diamine] | > 10 µM |  | ††† (†††: >0.39) | < 0.1 µM | > 10 µM
4 | CC1(Nc2ccc(Nc3cc(Nc4ncccc4S(C)(=O)=O)ncn3)nc2)COC1 [Compound 21, N^4-(5-((3-methyloxetan-3-yl)amino)102yridine-2-yl)-N^6-(3-(methylsulfonyl)102yridine-2-yl)pyrimidine-4,6-diamine] | 4 to 10 µM |  | ††† (†††: >0.39) | < 0.1 µM | > 10 µM
5 | COc1cnc(Nc2cc(Nc3ccc([C@H](C)N4CC5(COC5)C4)cn3)ncn2)c(S(C)(=O)=O)c1 [Compound 3, (S)—N^4-(5-(1-(2-oxa-6-azaspiro[3.3]heptan-6-yl)ethyl)pyridine-2-yl)-N^6-(5-methoxy-3-(methylsulfonyl)77yridine-2-yl)pyrimidine-4,6-diamine] | 4 to 10 µM |  | †† (††: 0.37-0.39) | < 0.1 µM | > 10 µM
6 | CS(=O)(=O)c1cccnc1Nc1cc(Nc2cccc(C(F)(F)F)n2)ncn1 [Compound 19, N^4-(3-(methylsulfonyl)100yridine-2-yl)-N^6-(6-(trifluoromethyl) 100yridine-2-yl)pyrimidine-4,6-diamine] | > 10 µM |  | ††† (†††: >0.39) | < 0.1 µM | > 10 µM
7 | Cc1cncc(Nc2cc(Nc3ccccc3C(N)=O)ncn2)n1 [Compound 49, 2-(6-(6-methylpyrazin-2-ylamino)pyrimidin-4-ylamino)benzamide] | < 4 µM |  | ††† (†††: >0.39) | 0.1 to 1 µM | > 10 µM
8 | CS(=O)(=O)c1cccnc1Nc1cc(Nc2ccc3c(n2)CCC[C@@H]3N2CC3(COC3)C2)ncn1 [Compound 5, I-N^4-(5-(2-oxa-6-azaspiro[3.3]heptan-6-yl)-5,6,7,8-tetrahydroquinolin-2-yl)-N^6-(3-(methylsulfonyl)81yridine-2-yl)pyrimidine-4,6-diamine] | 4 to 10 µM |  | †† (††: 0.37-0.39) | < 0.1 µM | > 10 µM
9 | Cc1nc(Nc2cc(Nc3ncccc3S(C)(=O)=O)ncn2)ccc1NC1(C)COC1 [Compound 6, N^4-(6-methyl-5-((3-methyloxetan-3-yl)amino)82yridine-2-yl)-N^6-(3-(methylsulfonyl)82yridine-2-yl)pyrimidine-4,6-diamine] | 4 to 10 µM |  | ††† (†††: >0.39) | < 0.1 µM | > 10 µM
10 | CS(=O)(=O)c1ccccc1Nc1cc(Nc2ccc3c(n2)CCCC3N2CC3(CCOCC3)C2)ncn1 (centres unmarked) [Compound 27, N^4-(5-(7-oxa-2-azaspiro[3.5]nonan-2-yl)-5,6,7,8-tetrahydroquinolin-2-yl)-N^6-(2-(methylsulfonyl)phenyl)pyrimidine-4,6-diamine] | > 10 µM |  | † (†: <0.37) | < 0.1 µM | > 10 µM
11 | C[C@H]1COCCN1c1ccc(Nc2cc(Nc3ccccc3S(C)(=O)=O)ncn2)nc1 [Compound 54, (S)—N^4-(5-(3-methylmorpholino)144yridine-2-yl)-N^6-(2-(methylsulfonyl)phenyl)pyrimidine-4,6-diamine] |  |  | † (†: <0.37) | > 1 µM | 
12 | Cc1cccc(Nc2cc(Nc3cccnc3C(N)=O)ncn2)n1 [Compound 50, 3-((6-((6-methylpyridin-2-yl)amino)pyrimidin-4-yl)amino) picolinamide] |  |  | ††† (†††: >0.39) | 0.1 to 1 µM | 
